The values below come from publication PMC7321114, “Anion Inhibition Studies of the Beta-Carbonic Anhydrase from Escherichia coli” (Molecules, 2020).

Molecules are shown by their SMILES.

One test deals with T1, CynT2 (Escherichia coli, UniProt P61517).
T1 construct: gene can; full-length synthetic gene, 220 residues, no signal peptide, N-terminal His6 fusion (pET100D-Topo), expressed in E. coli BL21(DE3) codon plus, about 29 kDa subunit, tag removal not mentioned
T1 sequence (P61517 whole entry, the tested form may be a part): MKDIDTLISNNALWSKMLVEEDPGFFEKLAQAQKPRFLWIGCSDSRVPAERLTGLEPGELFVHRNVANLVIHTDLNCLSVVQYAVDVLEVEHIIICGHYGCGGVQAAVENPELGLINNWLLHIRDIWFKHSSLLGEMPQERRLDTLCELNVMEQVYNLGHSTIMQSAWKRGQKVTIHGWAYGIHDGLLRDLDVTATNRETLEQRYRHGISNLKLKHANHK
Description: stopped-flow CO2 hydration assay. It counts as biochemical. To be noted: CO2 substrate 1.7-17 mM, pH 8.3, 20 mM Tris, 20 mM NaClO4, 15 min preincubation; read-out: KI (mM) ^1 / CynT2.
Turning to `OB1OB2OB(O)OB(O1)O2` [B4O7^2−], the Ki is 0.25 mM.

For the compound `F[P-](F)(F)(F)(F)F` [PF6^−], the Ki was greater than 10 mM.

Still in this test, the particulars now being: read-out: KI (mM) ^1 / CynT2.
`Br` [Br^−]: the Ki stood at 3.8 mM.

Consider `O=S(=O)(O)C(F)(F)F` [CF3SO3^−], for which the Ki is greater than 10 mM.

Turning to `N#CO` [CNO^−], the Ki came out at 0.58 mM.

For `S=C(S)S` [CS3^2−], the Ki stood at 3.1 mM.

With `[O-][Cl+3]([O-])([O-])O` [ClO4^−], the Ki is greater than 100 mM.

On to `Cl` [Cl^−], for which the Ki was 6.7 mM.

Consider `CCN(CC)C(=S)S` [EtNCS2^−], for which the Ki turned out to be 0.084 mM.

As to `O=S(=O)(O)F` [FSO3^−], the Ki is 0.83 mM.

In the case of `F` [F^−], the Ki came to 9.4 mM.

On to `O=S(O)O` [HSO3^−], for which the Ki came to 3.7 mM.

Take `S` [HS^−]: the Ki was found to be 2.7 mM.

Consider `I` [I^−], for which the Ki is greater than 10 mM.

Turning to `NS(N)(=O)=O` [NH2SO2NH2], the Ki turned out to be 0.011 mM.

In the case of `NS(=O)(=O)O` [NH2SO3H], the Ki amounted to 0.0025 mM.

Regarding `O=S(=O)(O)NS(=O)(=O)O` [NH(SO3)2^2−], the Ki was found to be 1.5 mM.

Consider `O=NO` [NO2^−], for which the Ki was 4.9 mM.

As to `O=[N+]([O-])O` [NO3^−], the Ki was determined as 2.4 mM.

On to `O=P(O)(O)OP(=O)(O)O` [P2O7^2−], for which the Ki was greater than 10 mM.

`OB(O)c1ccccc1` [PhB(OH)2]: the Ki came to 0.0028 mM.

As to `[O]=[Re](=[O])(=[O])[OH]` [ReO4^−], the Ki is greater than 10 mM.

As to `[O]=[Ru](=[O])(=[O])[OH]` [RuO4^−], the Ki amounted to 9.5 mM.

In the case of `O=S(=O)(O)OOS(=O)(=O)O` [S2O8^2−], the Ki was determined as 6.4 mM.

With `N#CS` [SCN^−], the Ki is 5.7 mM.

With `O=S(=O)(O)O` [SO4^2−], the Ki stood at 1.7 mM.

`N#C[SeH]` [SeCN^−]: the Ki came out at 3.1 mM.

With `O=[Se](=O)(O)O` [SeO4^2−], the Ki is 3.1 mM.

As for `O=[Te](=O)(O)O` [TeO4^2−], the Ki is 0.51 mM.

On to `[O]=[V]([OH])([OH])[O][V](=[O])([OH])[OH]` [V2O7^2−], for which the Ki was greater than 10 mM.
